Measurements: US12049486B2, “PAC1 receptor agonists (MAXCAPs) and uses thereof” (priority 2017, dated 2024)
Where no end group is shown, it is not given here.

Assay: Hepatic fat / liver cirrhosis, NASH/NAFLD by H&E staining in DIO WT mice
Format: in vivo
Conditions: versus vehicle
Text: We have shown that these novel MAXCAP compounds, that are PAC1 specific agonists, can potentially treat Nonalcoholic steatohepatitis (NASH), non-alcoholic […] (NAFLD) and liver fibrosis. We injected these MAXCAP compounds in DIO WT mice and measured hepatic fat in the liver (see, e.g., FIG. 5).

## Pituitary Adenylate Cyclase Activating Polypeptide (HSDGIFTDSYSRYRKQMAVKKYLAAVLGKRYKQRVKNK; ends and bridges not checked; listed as Homo sapiens) [PACAP, native peptide]
  liver cirrhosis and NASH/NAFLD: significant reduction in liver cirrhosis and NASH/NAFLD
